Measured values published in ChEMBL document CHEMBL3885881, “DrugMatrix”.

Organism: Rattus norvegicus
Experiment: DrugMatrix - Regimen: Daily Repeat
Format: toxicity, organism-based, Sprague-Dawley
Set-up: regimen Daily Repeat, gender Male, age 6-8 weeks
Details: in vivo, po, 50 mg/kg, route oral GAVAGE, dose level Low, vehicle .5 % CMC; for ABSOLUTE BASOPHIL / ABSOLUTE EOSINOPHIL / ABSOLUTE LYMPHOCYTE / ABSOLUTE MONOCYTE / ABSOLUTE SEGMENTED NEUTROPHIL / BASOPHIL / EOSINOPHIL / ERYTHROCYTE COUNT / HEMATOCRIT / HEMOGLOBIN / LEUKOCYTE COUNT / LYMPHOCYTE / MEAN CORPUSCULAR HEMOGLOBIN / MEAN CORPUSCULAR HEMOGLOBIN CONCENTRATION / MEAN CORPUSCULAR VOLUME / MONOCYTE / NEUTROPHIL / NUCLEATED RED BLOOD CELLS / PLATELET COUNT: tissue Blood; for ALANINE AMINOTRANSFERASE / ALBUMIN / ALKALINE PHOSPHATASE / ASPARTATE AMINOTRANSFERASE / BLOOD UREA NITROGEN / CARBON DIOXIDE / CHLORIDE / CHOLESTEROL / CREATINE PHOSPHOKINASE / CREATININE / GLUCOSE / LACTATE DEHYDROGENASE / LIPASE / PHOSPHORUS / POTASSIUM / SODIUM / TOTAL BILIRUBIN / TOTAL PROTEIN / URIC ACID: tissue Plasma

Structure (SMILES): Cc1cccc(C)c1OCC(C)N (stereo unspecified) [MEXILETINE]
- ABSOLUTE BASOPHIL (72 h, time 3 day): 0 CELLS/uL
- ABSOLUTE EOSINOPHIL (72 h, time 3 day): 76.67 CELLS/uL
- ABSOLUTE LYMPHOCYTE (72 h, time 3 day): 11625.67 CELLS/uL
- ABSOLUTE MONOCYTE (72 h, time 3 day): 164.33 CELLS/uL
- ABSOLUTE SEGMENTED NEUTROPHIL (72 h, time 3 day): 733.33 CELLS/uL
- BASOPHIL (72 h, time 3 day): 0%
- EOSINOPHIL (72 h, time 3 day): 0.67%
- ERYTHROCYTE COUNT (72 h, time 3 day): 5.83 x10E6/uL
- HEMATOCRIT (72 h, time 3 day): 36.67%
- HEMOGLOBIN (72 h, time 3 day): 13.2 G/DL
- LEUKOCYTE COUNT (72 h, time 3 day): 12.6 x10E3/uL
- LYMPHOCYTE (72 h, time 3 day): 92.33%
- MEAN CORPUSCULAR HEMOGLOBIN (72 h, time 3 day): 22.63 pg
- MEAN CORPUSCULAR HEMOGLOBIN CONCENTRATION (72 h, time 3 day): 36 G/DL
- MEAN CORPUSCULAR VOLUME (72 h, time 3 day): 62.9 fL
- MONOCYTE (72 h, time 3 day): 1.33%
- NEUTROPHIL (72 h, time 3 day): 5.67%
- NUCLEATED RED BLOOD CELLS (72 h, time 3 day): 0 /100WBC
- PLATELET COUNT (72 h, time 3 day): 1579.67 x10E3/uL
- ALANINE AMINOTRANSFERASE (72 h, time 3 day): 39.67 u/L
- ALBUMIN (72 h, time 3 day): 4.47 G/DL
- ALKALINE PHOSPHATASE (72 h, time 3 day): 347.33 u/L
- ASPARTATE AMINOTRANSFERASE (72 h, time 3 day): 70.33 u/L
- BLOOD UREA NITROGEN (72 h, time 3 day): 15 mg/dL
- CARBON DIOXIDE (72 h, time 3 day): 26.67 mmol/L
- CHLORIDE (72 h, time 3 day): 103.33 MEQ/L
- CHOLESTEROL (72 h, time 3 day): 73 mg/dL
- CREATINE PHOSPHOKINASE (72 h, time 3 day): 249.33 u/L
- CREATININE (72 h, time 3 day): 0.18 mg/dL
- GLUCOSE (72 h, time 3 day): 168.67 mg/dL
- LACTATE DEHYDROGENASE (72 h, time 3 day): 90 u/L
- LIPASE (72 h, time 3 day): 9 u/L
- PHOSPHORUS (72 h, time 3 day): 13.23 mg/dL
- POTASSIUM (72 h, time 3 day): 6.67 MEQ/L
- SODIUM (72 h, time 3 day): 144.43 MEQ/L
- TOTAL BILIRUBIN (72 h, time 3 day): 0.2 mg/dL
- TOTAL PROTEIN (72 h, time 3 day): 6 G/DL
- URIC ACID (72 h, time 3 day): 2.37 mg/dL
- ABSOLUTE BASOPHIL (120 h, time 5 day): 0 CELLS/uL
- ABSOLUTE EOSINOPHIL (120 h, time 5 day): 311.67 CELLS/uL
- ABSOLUTE LYMPHOCYTE (120 h, time 5 day): 17277 CELLS/uL
- ABSOLUTE MONOCYTE (120 h, time 5 day): 358.33 CELLS/uL
- ABSOLUTE SEGMENTED NEUTROPHIL (120 h, time 5 day): 1686.33 CELLS/uL
- BASOPHIL (120 h, time 5 day): 0%
- EOSINOPHIL (120 h, time 5 day): 1.67%
- ERYTHROCYTE COUNT (120 h, time 5 day): 5.61 x10E6/uL
- HEMATOCRIT (120 h, time 5 day): 35.37%
- HEMOGLOBIN (120 h, time 5 day): 13.43 G/DL
- LEUKOCYTE COUNT (120 h, time 5 day): 19.63 x10E3/uL
- LYMPHOCYTE (120 h, time 5 day): 88%
- MEAN CORPUSCULAR HEMOGLOBIN (120 h, time 5 day): 23.97 pg
- MEAN CORPUSCULAR HEMOGLOBIN CONCENTRATION (120 h, time 5 day): 38 G/DL
- MEAN CORPUSCULAR VOLUME (120 h, time 5 day): 63.13 fL
- MONOCYTE (120 h, time 5 day): 1.67%
- NEUTROPHIL (120 h, time 5 day): 8.67%
- NUCLEATED RED BLOOD CELLS (120 h, time 5 day): 0 /100WBC
- PLATELET COUNT (120 h, time 5 day): 1342.33 x10E3/uL
- ALANINE AMINOTRANSFERASE (120 h, time 5 day): 52 u/L
- ALBUMIN (120 h, time 5 day): 4.23 G/DL
- ALKALINE PHOSPHATASE (120 h, time 5 day): 414.33 u/L
- ASPARTATE AMINOTRANSFERASE (120 h, time 5 day): 89 u/L
- BLOOD UREA NITROGEN (120 h, time 5 day): 18.67 mg/dL
- CARBON DIOXIDE (120 h, time 5 day): 24.33 mmol/L
- CHLORIDE (120 h, time 5 day): 106.67 MEQ/L
- CHOLESTEROL (120 h, time 5 day): 62 mg/dL
- CREATINE PHOSPHOKINASE (120 h, time 5 day): 325.67 u/L
- CREATININE (120 h, time 5 day): 0.19 mg/dL
- GLUCOSE (120 h, time 5 day): 163.67 mg/dL
- LACTATE DEHYDROGENASE (120 h, time 5 day): 469 u/L
- LIPASE (120 h, time 5 day): 8.67 u/L
- PHOSPHORUS (120 h, time 5 day): 12.77 mg/dL
- POTASSIUM (120 h, time 5 day): 6.24 MEQ/L
- SODIUM (120 h, time 5 day): 144.53 MEQ/L
- TOTAL BILIRUBIN (120 h, time 5 day): 0.3 mg/dL
- TOTAL PROTEIN (120 h, time 5 day): 6.4 G/DL
- URIC ACID (120 h, time 5 day): 1.83 mg/dL
